The term IC50 denotes the point on the concentration scale where inhibition reaches its midpoint.

Like-named read-outs stand apart in the source and are kept apart here.

The target in the experiment is human PD-L1 / Human PD-1 (Homo sapiens (Human), UniProt Q9NZQ7). Put plainly: Enzyme-Linked Immunosorbent Assay (ELISA), PD-1/PD-L1 binding. The settings on record: plate-coated human PD-L1, biotinylated human PD-1, read-out: ELISA IC50. On the procedure: Plates were coated with 1 μg/mL of human PD-L1 (obtained from R&D) in PBS overnight at 4° C. The wells were then blocked with PBS containing 2% BSA in PBS (W/V) with 0.05% TWEEN-20 for 1 hour at 37° C. The plates were washed 3 times with PBS/0.05% TWEEN-20 and the samples were diluted to 1:5 in dilution medium in the ELISA plates. Human PD-1 and biotin 0.3 μg/mL (ACRO Biosystems) were added and incubated for 1 hour at 37° C. then washed 3 times with PBS/0.05% TWEEN-20. A second block was added with PBS containing 2% BSA in PBS (W/V)/0.05% TWEEN-20 for 10 min at 37° C. and was washed 3 times with PBS/0.05% TWEEN-20. Streptavidin-HRP was added for 1 hour at 37° C. then washed 3 times with PBS/0.05% TWEEN-20. TMB substrate was added and reacted for 20 min at 37° C. A stop solution (2 N aqueous H2SO4) was added. The absorbance was read at 450 nm using a micro-plate spectrophotometer.
human PD-L1 / Human PD-1, sequence (Q9NZQ7 19-239): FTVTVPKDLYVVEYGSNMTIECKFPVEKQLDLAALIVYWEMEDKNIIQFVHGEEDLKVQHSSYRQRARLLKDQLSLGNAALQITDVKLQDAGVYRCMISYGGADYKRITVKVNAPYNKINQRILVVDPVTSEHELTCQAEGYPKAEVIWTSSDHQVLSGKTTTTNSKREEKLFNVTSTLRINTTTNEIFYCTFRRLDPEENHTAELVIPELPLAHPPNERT
Compounds in Table 2 and Table 3 were prepared by methods as described in the Examples, and evaluated according to the assay below.
For orientation: An ELISA detects its analyte on a solid surface through an enzyme-linked reagent.

Regarding `N#Cc1cc(Br)cc(COc2cc(O[C@H]3CCc4c(-c5ccccc5F)cccc43)c(Cl)cc2CN[C@@H](CO)C(=O)O)c1` [Example 3.063], the 50% inhibitory concentration (IC50) (Table 3) was < 0.1 µM.

Turning to `COc1ccc(F)c(-c2cccc3c2CC[C@@H]3Oc2cc(OCc3cncc(C#N)c3)c(CN[C@@H](CO)C(=O)O)cc2Cl)c1` [Example 2.045], the IC50 (Table 2) is < 0.1 µM.

On to `CC(C)OC(=O)[C@@H](NCc1cc(Cl)c(O[C@H]2CCc3c(-c4ccccc4F)cccc32)cc1OCc1cncc(C#N)c1)[C@@H](C)O` [Example 2.169], for which the IC50 (Table 2) is 0.5 to 20 µM.

As for `N#Cc1cncc(COc2cc(O[C@H]3CCc4c(-c5ccc6c(c5F)OCCO6)cccc43)c(Cl)cc2CN[C@@H](CCO)C(=O)O)c1` [Example 3.034], the concentration for half-maximal inhibition (IC50) (Table 3) was < 0.1 µM.

On to `CCOc1cc(O[C@H]2CCc3c(-c4ccccc4F)cccc32)c(Cl)cc1CNC(C)(CO)C(=O)O` (stereo partly drawn) [Example 2.177], for which the IC50 (Table 2) fell in the range of 0.1 to 0.5 µM.

With `O=C(O)[C@H](CO)NCc1cc(Cl)c(O[C@H]2CCc3c(-c4ccc5c(c4F)OCCO5)cccc32)cc1OCc1cc(F)cc(F)c1` [Example 3.012], the half-inhibitory concentration (IC50) (Table 3) was in the range of 0.5 to 20 µM.

As for `OC1CCN(Cc2cc(Cl)c(O[C@H]3CCc4c(-c5ccccc5F)cccc43)cc2OCc2cnc(N3CCC(O)CC3)nc2)CC1` [Example 2.109], where the note is “Table 2”, the IC50 lay in the range of 0.5 to 20 µM.

Regarding `N#Cc1cncc(COc2cc(O[C@H]3CCc4c(-c5cccc(CO)c5)cccc43)c(Cl)cc2CN[C@@H](CO)C(=O)O)c1` [Example 3.121], the half-inhibitory concentration (IC50) (Table 3) lay within 0.5 to 20 µM.

Regarding `N#Cc1cncc(COc2cc(O[C@H]3CCc4c(-c5cccc6ccccc56)cccc43)c(Cl)cc2CN[C@@H](CO)C(=O)O)c1` [Example 3.126], under “Table 3”, the 50% inhibitory concentration (IC50) was 0.1 to 0.5 µM.

Turning to `COc1ccccc1-c1cccc2c1CC[C@@H]2Oc1cc(OCc2cncc(C#N)c2)c(CN[C@@H](CO)C(=O)O)cc1Cl` [Example 2.009], the half-inhibitory concentration (IC50) (Table 2) was 0.5 to 20 µM.

Turning to `N#Cc1cncc(COc2cc(O[C@H]3CCc4c(-c5ccc6c(c5)OCCO6)cccc43)c(Cl)cc2CN2CC(O)C2)c1` [Example 2.050], the half-maximal inhibitory concentration (IC50) (Table 2) was < 0.1 µM.

`N#Cc1cncc(COc2cc(O[C@H]3CCc4c(-c5ccccc5)cccc43)c(Cl)cc2CN2CC(C(=O)O)C2)c1` [Example 2.003]: the IC50 (Table 2) was < 0.1 µM.

With `N#Cc1cncc(COc2cc(O[C@H]3CCc4c(-c5ccccc5F)cccc43)c(Cl)cc2CN[C@@H](C(=O)O)c2ccc(O)cc2)c1` [Example 2.175], the IC50 (Table 2) lay in the range of 0.1 to 0.5 µM.

`N#Cc1cc(C#N)cc(COc2cc(O[C@H]3CCc4c(-c5ccccc5F)cccc43)c(Cl)cc2CN[C@@H](CO)C(=O)O)c1` [Example 3.004]: where the note is “Table 3”, the half-inhibitory concentration (IC50) is < 0.1 µM.

For `COc1cccc(-c2cccc3c2CC[C@@H]3Oc2cc(OCc3cncc(C#N)c3)c(CN3CCOCC3)cc2Cl)c1Cl` [Example 2.082], the IC50 (Table 2) was in the range of 0.5 to 20 µM.

`N#Cc1cncc(COc2cc(O[C@H]3CCc4c(-c5ccc6c(c5F)OCCO6)cccc43)c(Cl)cc2CN[C@H]2CCCC[C@@H]2C(=O)O)c1` [Example 3.036]: where the note is “Table 3”, the IC50 was 0.1 to 0.5 µM.

`N#Cc1cncc(COc2cc(O[C@H]3CCc4c(-c5ccccc5)cccc43)c(Cl)cc2CNCC2CCC(=O)N2)c1` (stereo partly drawn) [Example 1.014]: for the setting “Table 2”, the IC50 was in the range of 0.1 to 0.5 µM.

In the case of `N#Cc1cncc(COc2cc(O[C@H]3CCc4c(-c5ccccc5F)cccc43)c(Cl)cc2CN2CC(O)C2)c1` [Example 2.037], the IC50 (Table 2) was < 0.1 µM.

For `N#Cc1cncc(COc2cc(O[C@H]3CCc4c(-c5ccccc5F)cccc43)c(Cl)cc2CNCc2c[nH]cn2)c1` [Example 3.059], the IC50 (Table 3) was < 0.1 µM.

With `N#Cc1cncc(COc2cc(O[C@H]3CCc4c(-c5ccc6c(c5F)OCCO6)cccc43)c(Cl)cc2CN[C@@H](CO)C(=O)O)c1` [Example 2.057], the IC50 (Table 2) is < 0.1 µM.

Consider `N#Cc1cncc(COc2cc(O[C@H]3CCc4c(-c5ccc6c(c5F)OCCO6)cccc43)c(Cl)cc2CNC(CO)(CO)CO)c1` [Example 3.057], for which the 50% inhibitory concentration (IC50) (Table 3) was < 0.1 µM.

In the case of `COc1ncc(COc2cc(O[C@H]3CCc4c(-c5ccccc5F)cccc43)c(Cl)cc2CN2CCC(O)CC2)cn1` [Example 2.131], the 50% inhibitory concentration (IC50) (Table 2) is 0.1 to 0.5 µM.

With `CCOc1cc(O[C@H]2CCc3c(-c4cccc(OC)c4F)cccc32)c(Cl)cc1CN[C@@H](CO)C(=O)O` [Example 2.048], the IC50 (Table 2) was < 0.1 µM.

With `C[C@@H](O)[C@@H](CC(=O)O)NCc1cc(Cl)c(O[C@@H]2CCc3c(-c4ccccc4F)cccc32)cc1OCc1cncc(C#N)c1` [Example 3.064], the IC50 (Table 3) fell in the range of 0.5 to 20 µM.

For `N#Cc1cncc(COc2cc(O[C@H]3CCc4c(-c5ccccc5F)cccc43)c(Cl)cc2CN[C@H]2CCC[C@H](O)C2)c1` [Example 3.040], the IC50 (Table 3) is < 0.1 µM.

Turning to `N#Cc1cncc(COc2cc(O[C@H]3CCc4c(-c5ccccc5F)cccc43)c(Cl)cc2CN[C@H](CCCNC(=N)N)C(=O)O)c1` [Example 3.098], the IC50 (Table 3) was 0.1 to 0.5 µM.

Take `N#Cc1cncc(COc2cc(O[C@H]3CCc4c(-c5ccc6c(c5F)OCO6)cccc43)c(Cl)cc2CN[C@@H](CO)C(=O)O)c1` [Example 3.110]: the IC50 (Table 3) was < 0.1 µM.

For the molecule `CCOC(=O)[C@H](CO)NCc1cc(Cl)c(O[C@H]2CCc3c(-c4ccccc4F)cccc32)cc1OCc1cncc(C#N)c1` [Example 2.162], the half-maximal inhibitory concentration (IC50) (Table 2) lay within 0.5 to 20 µM.

On to `N#Cc1cncc(COc2cc(O[C@@H]3CCc4c(-c5ccccc5F)cccc43)c(Cl)cc2CN[C@H](CO)C(=O)O)c1` [Example 3.069], for which the concentration for half-maximal inhibition (IC50) (Table 3) is < 0.1 µM.

As to `OC1CCN(Cc2cc(Cl)c(O[C@H]3CCc4c(-c5ccccc5F)cccc43)cc2OCc2ccc(C(F)(F)F)nc2)CC1` [Example 2.096], the half-maximal inhibitory concentration (IC50) (Table 2) is 0.5 to 20 µM.

`N#Cc1cncc(COc2cc(O[C@H]3CCc4c(-c5ccccc5F)cccc43)c(Cl)cc2CNC2(C(=O)O)CC2)c1` [Example 2.144]: the IC50 (Table 2) is < 0.1 µM.

Consider `COc1cccc(-c2cccc3c2CC[C@@H]3Oc2cc(OCc3cncc(C#N)c3)c(CNCCS(N)(=O)=O)cc2Cl)c1F` [Example 2.078], for which, for the setting “Table 2”, the half-inhibitory concentration (IC50) fell in the range of 0.5 to 20 µM.

Turning to `N#Cc1cncc(COc2cc(O[C@H]3CCc4c(-c5cc(C#N)ccc5F)cccc43)c(Cl)cc2CN[C@@H](CO)C(=O)O)c1` [Example 2.062], the IC50 (Table 2) fell in the range of 0.5 to 20 µM.

For `COc1cccc(-c2cccc3c2CC[C@@H]3Oc2cc(OCc3cncc(C#N)c3)c(CNCc3noc(=O)[nH]3)cc2Cl)c1F` [Example 2.054], under “Table 2”, the IC50 lay within 0.5 to 20 µM.

For the molecule `N#Cc1cncc(COc2cc(O[C@H]3CCc4c(-c5ccccc5F)cccc43)c(Cl)cc2CN2CCC(C(=O)O)C2)c1` (stereo partly drawn) [Example 2.032], where the note is “Table 2”, the IC50 was < 0.1 µM.

Consider `COc1cccc(-c2cccc3c2CC[C@@H]3Oc2cc(OCc3cncc(C#N)c3)c(CN3CC(O)C3)cc2Cl)c1F` [Example 2.051], for which, for the setting “Table 2”, the half-maximal inhibitory concentration (IC50) is < 0.1 µM.

`Cn1nccc1-c1cncc(COc2cc(O[C@H]3CCc4c(-c5ccccc5F)cccc43)c(Cl)cc2CN[C@@H](CO)C(=O)O)c1` [Example 3.106]: for the setting “Table 3”, the IC50 was 0.1 to 0.5 µM.

Turning to `CC(N[C@@H](CO)C(=O)O)c1cc(Cl)c(O[C@H]2CCc3c(-c4ccc(O)cc4)cccc32)cc1OCc1cncc(C#N)c1` (stereo partly drawn) [Example 3.111], under “Table 3”, the IC50 lay within 0.5 to 20 µM.

With `N#Cc1cncc(COc2cc(O[C@H]3CCc4c(-c5ccccc5F)cccc43)c(Cl)cc2CN[C@@H](CO)C(=O)NCC(=O)NCC(=O)O)c1` [Example 3.043], the IC50 (Table 3) is < 0.1 µM.

As for `N#Cc1cncc(COc2cc(OC3CCc4c(-c5ccccc5F)cccc43)c(F)cc2CN[C@@H](CO)C(=O)O)c1` (stereo partly drawn) [Example 3.070], under “Table 3”, the IC50 is < 0.1 µM.

In the case of `C[C@@H](O)[C@@H](NCc1cc(Cl)c(O[C@H]2CCc3c(-c4ccccc4F)cccc32)cc1OCc1cncc(C#N)c1)C(=O)O` [Example 2.129], under “Table 2”, the IC50 was < 0.1 µM.

Consider `Cc1cc2cc(CNCc3cc(Cl)c(O[C@H]4CCc5c(-c6ccccc6F)cccc54)cc3OCc3cncc(C#N)c3)ccc2[nH]1` [Example 3.087], for which the IC50 (Table 3) is 0.5 to 20 µM.

For `N#Cc1cncc(COc2cc(OC3CCc4c(-c5ccccc5)cccc43)c(Cl)cc2CNCc2nnn[nH]2)c1` (stereo not drawn) [Example 1.003], the IC50 (Table 2) is < 0.1 µM.

Turning to `N#Cc1cncc(COc2cc(O[C@H]3CCc4c(-c5ccccc5F)cccc43)c(Cl)cc2CN2CCC(O)(C(=O)O)C2)c1` (stereo partly drawn) [Example 2.022], the half-inhibitory concentration (IC50) (Table 2) is < 0.1 µM.

Take `CCOc1cc(O[C@H]2CCc3c(-c4ccccc4F)cccc32)c(Cl)cc1CN1CCC(O)CC1` [Example 2.061]: where the note is “Table 2”, the 50% inhibitory concentration (IC50) was in the range of 0.5 to 20 µM.

`N#Cc1ccnc(COc2cc(O[C@H]3CCc4c(-c5ccc6c(c5F)OCCO6)cccc43)c(Cl)cc2CN[C@@H](CO)C(=O)O)c1` [Example 3.026]: the half-inhibitory concentration (IC50) (Table 3) is < 0.1 µM.

For `C[C@@H](O)[C@H](NC(=O)CNCc1cc(Cl)c(O[C@H]2CCc3c(-c4ccccc4F)cccc32)cc1OCc1cncc(C#N)c1)C(=O)O` [Example 2.135], the half-maximal inhibitory concentration (IC50) (Table 2) lay in the range of 0.1 to 0.5 µM.

As for `C[C@@H](O)[C@H](NCc1cc(Cl)c(O[C@H]2CCc3c(-c4ccccc4F)cccc32)cc1-c1cncc(C#N)c1)C(=O)O` [Example 2.126], the IC50 (Table 2) lay within 0.1 to 0.5 µM.

As for `CC(C)c1cccc(-c2cccc3c2CC[C@@H]3Oc2cc(OCc3cncc(C#N)c3)c(CN[C@@H](CO)C(=O)O)cc2Cl)c1` [Example 2.033], the half-inhibitory concentration (IC50) (Table 2) lay in the range of 0.5 to 20 µM.

With `CC(C)Oc1cc(O[C@H]2CCc3c(-c4ccccc4)cccc32)c(Cl)cc1CN[C@@H](CO)C(=O)O` [Example 2.011], the IC50 (Table 2) lay in the range of 0.5 to 20 µM.

As for `C[C@@H](O)[C@H](NCc1cc(Cl)c(O[C@@H]2c3cccc(-c4ccccc4F)c3C[C@H]2F)cc1OCc1cncc(C#N)c1)C(=O)O` [Example 2.146], the IC50 (Table 2) is < 0.1 µM.

The record behind these values is patent US10639284B2, “Immunomodulator compounds” (CHEMOCENTRYX, INC., priority 2016, dated 2020).
